According to patent publication US20150231147A1, “METHODS FOR ACUTE AND LONG-TERM TREATMENT OF DRUG ADDICTION” (DemeRx, Inc., priority 2014, published 2015):

Tested on: opioid-dependent participants
Assay: Treatment emergent adverse events in opioid-dependent participants
Assay type: in vivo, human
Conditions: opioid-dependent patients
Procedure: The efficacy of noribogaine in humans was evaluated in opioid-dependent participants in a randomized, placebo-controlled, double-blind trial. […] See U.S. application Ser. No. 14/214,157, filed Mar. 14, 2014 and Ser. No. 14/346,655, filed Mar. 21, 2014, which are incorporated herein by reference in their entireties.
Three cohorts of nine (9) subjects (6 administered noribogaine and 3 administered placebo in each cohort) were evaluated for tolerability, pharmacokinetics, and efficacy. Cohort 1 received a single dose of 60 mg noribogaine or placebo. Cohort 2 received a single dose of 120 mg noribogaine or placebo. Cohort 3 received a single dose of 180 mg noribogaine or placebo.

CC[C@H]1CC2C[C@H]3c4[nH]c5ccc(O)cc5c4CCN(C2)C13 [Noribogaine]
Treatment emergent AEs: Catheter Site Infection (single 60 mg dose (N = 6)): 0 | Treatment emergent AEs: Catheter Site Pain (single 60 mg dose (N = 6)): 0 | Treatment emergent AEs: Catheter Site Related Reaction (single 60 mg dose (N = 6)): 0 | Treatment emergent AEs: Cellulitis (single 60 mg dose (N = 6)): 0 | Treatment emergent AEs: Diarrhoea (single 60 mg dose (N = 6)): 0 | Treatment emergent AEs: Dry Mouth (single 60 mg dose (N = 6)): 0 | Treatment emergent AEs: Ear and Labyrinth Disorders (single 60 mg dose (N = 6)): 0 | Treatment emergent AEs: Epistaxis (single 60 mg dose (N = 6)): 0 | Treatment emergent AEs: Euphoric Mood (single 60 mg dose (N = 6)): 0 | Treatment emergent AEs: General Disorders and Administration Site Conditions (single 60 mg dose (N = 6)): 0 | Treatment emergent AEs: Hyperaesthesia (single 60 mg dose (N = 6)): 0 | Treatment emergent AEs: Infections and Infestations (single 60 mg dose (N = 6)): 0 | Treatment emergent AEs: Limb Discomfort (single 60 mg dose (N = 6)): 0 | Treatment emergent AEs: Malaise (single 60 mg dose (N = 6)): 0 | Treatment emergent AEs: Nausea (single 60 mg dose (N = 6)): 0 | Treatment emergent AEs: Oropharyngeal Pain (single 60 mg dose (N = 6)): 0 | Treatment emergent AEs: Pseudoparalysis (single 60 mg dose (N = 6)): 0 | Treatment emergent AEs: Respiratory, Thoracic and Mediestinal Disorders (single 60 mg dose (N = 6)): 0 | Treatment emergent AEs: Rhinorrhoea (single 60 mg dose (N = 6)): 0 | Treatment emergent AEs: Skin Discomfort (single 60 mg dose (N = 6)): 0 | Treatment emergent AEs: Skin Irritation (single 60 mg dose (N = 6)): 0 | Treatment emergent AEs: Skin and Subcutaneous Tissue Disorders (single 60 mg dose (N = 6)): 0 | Treatment emergent AEs: Somnolence (single 60 mg dose (N = 6)): 0 | Treatment emergent AEs: Tinnitus (single 60 mg dose (N = 6)): 0 | Treatment emergent AEs: Tremor (single 60 mg dose (N = 6)): 0 | Treatment emergent AEs: Urinary Tract Infection (single 60 mg dose (N = 6)): 0 | Treatment emergent AEs: Vomiting (single 60 mg dose (N = 6)): 0 | Treatment emergent AEs: Back pain (single 120 mg dose (N = 6)): 0 | Treatment emergent AEs: Catheter Site Infection (single 120 mg dose (N = 6)): 0 | Treatment emergent AEs: Catheter Site Related Reaction (single 120 mg dose (N = 6)): 0 | Treatment emergent AEs: Depressed Mood (single 120 mg dose (N = 6)): 0 | Treatment emergent AEs: Dry Eye (single 120 mg dose (N = 6)): 0 | Treatment emergent AEs: Dyspepsia (single 120 mg dose (N = 6)): 0 | Treatment emergent AEs: Euphoric Mood (single 120 mg dose (N = 6)): 0 | Treatment emergent AEs: Limb Discomfort (single 120 mg dose (N = 6)): 0 | Treatment emergent AEs: Malaise (single 120 mg dose (N = 6)): 0 | Treatment emergent AEs: Musculoskeletal and Connective Tissue Disorders (single 120 mg dose (N = 6)): 0 | Treatment emergent AEs: Psychiatric Disorders (single 120 mg dose (N = 6)): 0 | Treatment emergent AEs: Somnolence (single 120 mg dose (N = 6)): 0 | Treatment emergent AEs: Urinary Tract Infection (single 120 mg dose (N = 6)): 0 | Treatment emergent AEs: Catheter Site Infection (single 180 mg dose (N = 6)): 0 | Treatment emergent AEs: Catheter Site Pain (single 180 mg dose (N = 6)): 0 | Treatment emergent AEs: Depressed Mood (single 180 mg dose (N = 6)): 0 | Treatment emergent AEs: Diarrhoea (single 180 mg dose (N = 6)): 0 | Treatment emergent AEs: Dry Eye (single 180 mg dose (N = 6)): 0 | Treatment emergent AEs: Dyspepsia (single 180 mg dose (N = 6)): 0 | Treatment emergent AEs: Ear and Labyrinth Disorders (single 180 mg dose (N = 6)): 0 | Treatment emergent AEs: Epistaxis (single 180 mg dose (N = 6)): 0 | Treatment emergent AEs: Euphoric Mood (single 180 mg dose (N = 6)): 0 | Treatment emergent AEs: Hyperaesthesia (single 180 mg dose (N = 6)): 0 | Treatment emergent AEs: Malaise (single 180 mg dose (N = 6)): 0 | Treatment emergent AEs: Oropharyngeal Pain (single 180 mg dose (N = 6)): 0 | Treatment emergent AEs: Pseudoparalysis (single 180 mg dose (N = 6)): 0 | Treatment emergent AEs: Psychiatric Disorders (single 180 mg dose (N = 6)): 0 | Treatment emergent AEs: Respiratory, Thoracic and Mediestinal Disorders (single 180 mg dose (N = 6)): 0 | Treatment emergent AEs: Rhinorrhoea (single 180 mg dose (N = 6)): 0 | Treatment emergent AEs: Skin Discomfort (single 180 mg dose (N = 6)): 0 | Treatment emergent AEs: Skin Irritation (single 180 mg dose (N = 6)): 0 | Treatment emergent AEs: Skin and Subcutaneous Tissue Disorders (single 180 mg dose (N = 6)): 0 | Treatment emergent AEs: Somnolence (single 180 mg dose (N = 6)): 0 | Treatment emergent AEs: Tinnitus (single 180 mg dose (N = 6)): 0 | Treatment emergent AEs: Tremor (single 180 mg dose (N = 6)): 0 | adverse effects observed (single 60, 120 or 180 mg dose): Few adverse effects | hallucinatory effects (single 60, 120 or 180 mg dose): no hallucinatory effects
